From EPA's ToxRefDB 2

Experiments:
dog [1] = conditions: Chronic toxicity, beagle, Oral, Capsule, dose end: 52 week, group: systemic
rat [2] = conditions: Subchronic oral toxicity in rodents, fischer, Feed, dose end: 13 week, group: systemic
mouse [3] = conditions: Carcinogenicity, b6c3f1, Oral, [Not Specified], dose end: 104 week, group: systemic
rat [4] = conditions: Combined chronic toxicity/carcinogenicity; fischer; Oral; Feed; dose end: 104 week; group: systemic; systemic / in life observation / clinical signs / body cold to touch + systemic / in life observation / clinical signs / emaciation + …
rat [5] = conditions: Multigenerational reproductive toxicity study, other, Oral, Feed, dose end: 2 generation
dog [6] = conditions: Subchronic oral toxicity in nonrodent, beagle, Capsule, dose end: 13 week, group: systemic, systemic / in life observation / clinical signs / salivation + systemic / pathology microscopic / liver / proliferation
mouse [7] = conditions: Subchronic oral toxicity in rodents, b6c3f1, Feed, dose end: 13 week, group: systemic
rat [8] = conditions: Chronic toxicity; sprague dawley; Oral; Feed; dose end: 104 week; group: systemic; systemic / in life observation / body weight / body weight + systemic / in life observation / body weight / body weight gain + systemic / …
dog [9] = conditions: Chronic toxicity, beagle, Oral, Feed, dose end: 52 week, group: systemic
dog [10] = conditions: Subchronic oral toxicity in nonrodent, beagle, Feed, dose end: 13 week, group: systemic, systemic / clinical chemistry / alkaline phosphatase (alp/alk) / alkaline phosphatase (alp/alk) + systemic / organ weight / prostate / …
rat [11] = conditions: Carcinogenicity, sprague dawley, Oral, Feed, dose end: 104 week, group: systemic
mouse [12] = conditions: Carcinogenicity; cd1; Oral; [Not Specified]; dose end: 24 month; group: systemic; systemic / in life observation / body weight / body weight gain
rat [13] = conditions: Subchronic oral toxicity in rodents, sprague dawley, Feed, dose end: 95 day, group: systemic
rabbit [14] = conditions: Prenatal developmental toxicity study, new zealand white, Oral, Gavage/Intubation, dose end: 18 GD
rat [15] = conditions: Subchronic dermal toxicity, sprague dawley, Topical, dose end: 91 day, group: systemic
rabbit [16] = conditions: Prenatal developmental toxicity study, new zealand white, Oral, Gavage/Intubation, dose end: 18 GD; remark: listed apart in the source
rat [17] = conditions: Prenatal developmental toxicity study, sprague dawley, Oral, Gavage/Intubation, dose end: 15 GD
rat [18] = conditions: Prenatal developmental toxicity study, sprague dawley, Oral, Gavage/Intubation, dose end: 15 GD; remark: listed apart in the source
rat [19] = conditions: Sub-acute dermal toxicity, sprague dawley, Topical, dose end: 21 day, group: systemic
[20] = systemic / pathology microscopic / liver / [other] + systemic / pathology microscopic / liver / hyperplasia
[21] = systemic / pathology microscopic / liver / [other] + systemic / pathology microscopic / liver / hyperplasia + systemic / in life observation…
[22] = systemic / clinical chemistry / alkaline phosphatase (alp/alk) / alkaline phosphatase (alp/alk) + systemic / clinical chemistry / gamma …
[23] = systemic / clinical chemistry / cholesterol / cholesterol
[24] = systemic / pathology microscopic / liver / hematopoietic cell proliferation granulocytic + systemic / pathology gross / liver / accentuated …
[25] = group: offspring, systemic / in life observation / body weight / offspring (pup) weight + systemic / in life observation / body weight / offspring (pup) …
[26] = group: parental, systemic / pathology microscopic / liver / hyperplasia
[27] = group: parental, systemic / pathology microscopic / liver / hyperplasia + systemic / pathology microscopic / liver / inflammation
[28] = systemic / pathology microscopic / liver / [other]
[29] = systemic / pathology microscopic / liver / [other] + systemic / in life observation / body weight / body weight + systemic / in life …
[30] = systemic / organ weight / prostate / absolute + systemic / organ weight / prostate / relative to body weight + systemic / clinical chemistry…
[31] = systemic / in life observation / body weight / body weight + systemic / in life observation / body weight / body weight gain
[32] = systemic / in life observation / body weight / body weight + systemic / in life observation / body weight / body weight gain + systemic / in…
[33] = systemic / pathology microscopic / liver / vacuolization
[34] = systemic / pathology microscopic / liver / vacuolization + systemic / hematology / erythrocyte (rbc) count differential / erythrocyte (rbc…
[35] = group: developmental, developmental / developmental malformation / bone / misaligned + systemic / in life observation / body weight / fetal weight + developmental…
[36] = group: maternal, reproductive / reproductive performance / aborted / aborted + reproductive / reproductive performance / postimplantation loss / …
[37] = systemic / pathology microscopic / skin / acanthosis + systemic / hematology / blood clotting / blood clotting - prothrombin time + systemic…
[38] = group: developmental, systemic / in life observation / body weight / fetal weight
[39] = group: maternal, reproductive / reproductive performance / resorptions / resorptions
[40] = group: maternal, systemic / in life observation / body weight / body weight gain
[41] = group: maternal, systemic / in life observation / body weight / body weight + systemic / in life observation / body weight / body weight gain + systemic / in…
[42] = systemic / in life observation / body weight / body weight gain + systemic / in life observation / clinical signs / desquamation + systemic…
[43] = systemic / pathology gross / skin / scabbing

COc1cc(OC)nc(Oc2cccc(Oc3nc(OC)cc(OC)n3)c2C(=O)[O-])n1.[Na+] [Bispyribac-sodium] was tested, and the LEL (dog [1]; [20]) was 100 mg/kg/day, the LOAEL (dog [1]; [20]) was 100 mg/kg/day and the NEL (dog [1]; [21]) was 10 mg/kg/day. For the same compound, the NOAEL (dog [1]; [21]) was 10 mg/kg/day, the LOAEL (rat [2]; [22]) was 724 mg/kg/day and the NOAEL (rat [2]; [22]) was 71.9 mg/kg/day. For the same compound, the LEL (rat [2]; [23]) was 8.1 mg/kg/day, the NEL (rat [2]; [23]) was less than 8.1 mg/kg/day and the LOAEL (mouse [3]; systemic / pathology microscopic / liver / hematopoietic cell proliferation granulocytic + systemic / in life observation / body weight / …) was 353 mg/kg/day. The LEL (mouse [3]; [24]) was 1.4 mg/kg/day, the NEL (mouse [3]; [24]) was less than 1.4 mg/kg/day and the NOAEL (mouse [3]; systemic / pathology microscopic / liver / hematopoietic cell proliferation granulocytic + systemic / pathology microscopic / liver / giant …) was 14.1 mg/kg/day. The LEL (rat [4]) was 194 mg/kg/day, the LOAEL (rat [4]) was 194 mg/kg/day and the NEL (rat [4]) was 10.9 mg/kg/day. The NOAEL (rat [4]) was 10.9 mg/kg/day, the LEL (rat [5]; [25]) was 759 mg/kg/day and the LOAEL (rat [5]; [25]) was 759 mg/kg/day. For the same compound, the NEL (rat [5]; [25]) was 75.7 mg/kg/day, the NOAEL (rat [5]; [25]) was 75.7 mg/kg/day and the LEL (rat [5]; [26]) was 75.7 mg/kg/day. For the same compound, the LOAEL (rat [5]; [26]) was 75.7 mg/kg/day, the NEL (rat [5]; [27]) was 1.5 mg/kg/day and the NOAEL (rat [5]; [27]) was 1.5 mg/kg/day. For the same compound, the LEL (dog [6]) was 600 mg/kg/day, the LOAEL (dog [6]) was 600 mg/kg/day and the NEL (dog [6]) was 100 mg/kg/day. The NOAEL (dog [6]) was 100 mg/kg/day, the LEL (mouse [7]; [28]) was 699 mg/kg/day and the LOAEL (mouse [7]; [28]) was 699 mg/kg/day. It also gave an NEL (mouse [7]; [29]) of 68.6 mg/kg/day and an NOAEL (mouse [7]; [29]) of 68.6 mg/kg/day.
In the case of COc1ccc(C(=CC(=O)N2CCOCC2)c2ccc(Cl)cc2)cc1OC [Dimethomorph], the LEL (rat [8]) is reported as 57.7 mg/kg/day, the LOAEL (rat [8]) is reported as 57.7 mg/kg/day and the NEL (rat [8]) is reported as 11.9 mg/kg/day. The NOAEL (rat [8]) was 11.9 mg/kg/day, the LOAEL (dog [9]; systemic / organ weight / prostate / absolute + systemic / organ weight / prostate / relative to body weight) was 44.6 mg/kg/day and the LEL (dog [9]; [30]) was 44.6 mg/kg/day. For the same compound, the NEL (dog [9]; [30]) was 14.7 mg/kg/day, the NOAEL (dog [9]; [30]) was 14.7 mg/kg/day and the LEL (dog [10]) was 43 mg/kg/day. For the same compound, the LOAEL (dog [10]) was 43 mg/kg/day, the NEL (dog [10]) was 15 mg/kg/day and the NOAEL (dog [10]) was 15 mg/kg/day. The LEL (rat [11]; [31]) was 46.3 mg/kg/day, the LOAEL (rat [11]; [31]) was 46.3 mg/kg/day and the NEL (rat [11]; [32]) was 11.3 mg/kg/day. It also gave an NOAEL (rat [11]; [32]) of 11.3 mg/kg/day, an LEL (mouse [12]) of 977 mg/kg/day and an LOAEL (mouse [12]) of 977 mg/kg/day. It also gave an NEL (mouse [12]) of 96.8 mg/kg/day, an NOAEL (mouse [12]) of 96.8 mg/kg/day and an LEL (rat [13]; [33]) of 2.9 mg/kg/day. It also gave an NEL (rat [13]; [33]) of less than 2.9 mg/kg/day, an LOAEL (rat [13]; [34]) greater than 73 mg/kg/day and an NOAEL (rat [13]; [34]) of no less than 73 mg/kg/day.
CN(C)C(=S)[S-].[K+] [Potassium dimethyldithiocarbamate] showed an LOAEL (rabbit [14]; group: developmental, developmental / developmental malformation / bone / misaligned + systemic / in life observation / body weight / fetal weight) of 38 mg/kg/day, an LEL (rabbit [14]; [35]) of 38 mg/kg/day and an NEL (rabbit [14]; [35]) of 12.8 mg/kg/day. It also gave an NOAEL (rabbit [14]; [35]) of 12.8 mg/kg/day, an LEL (rabbit [14]; [36]) of 38 mg/kg/day and an LOAEL (rabbit [14]; [36]) of 38 mg/kg/day. The NEL (rabbit [14]; [36]) was 12.8 mg/kg/day, the NOAEL (rabbit [14]; [36]) was 12.8 mg/kg/day and the LOAEL (rat [15]; systemic / pathology gross / skin / scabbing + systemic / pathology microscopic / skin / acanthosis) was 350 mg/kg/day. For the same compound, the NOAEL (rat [15]; systemic / pathology gross / skin / scabbing + systemic / pathology microscopic / skin / acanthosis + systemic / hematology / blood clotting…) was 75 mg/kg/day, the LEL (rat [15]; [37]) was 75 mg/kg/day and the NEL (rat [15]; [37]) was less than 75 mg/kg/day. The LEL (rabbit [16]; [38]) was 50 mg/kg/day, the LOAEL (rabbit [16]; [38]) was 150 mg/kg/day and the NEL (rabbit [16]; [38]) was 25 mg/kg/day. For the same compound, the NOAEL (rabbit [16]; [38]) was 50 mg/kg/day, the LEL (rabbit [16]; [39]) was 25 mg/kg/day and the NEL (rabbit [16]; [39]) was less than 25 mg/kg/day. For the same compound, the NOAEL (rabbit [16]; group: maternal, reproductive / reproductive performance / resorptions / resorptions + systemic / in life observation / body weight / body weight gain + …) was 50 mg/kg/day, the LOAEL (rabbit [16]; [40]) was 150 mg/kg/day and the LEL (rat [17]; [38]) was 600 mg/kg/day. It also gave an LOAEL (rat [17]; [38]) of 600 mg/kg/day, an NEL (rat [17]; [38]) of 400 mg/kg/day and an NOAEL (rat [17]; [38]) of 400 mg/kg/day. It also gave an LEL (rat [17]; [40]) of 100 mg/kg/day, an NEL (rat [17]; [40]) of less than 100 mg/kg/day and an LOAEL (rat [17]; group: maternal, systemic / in life observation / body weight / body weight gain + systemic / in life observation / clinical signs / salivation) of 400 mg/kg/day. For the same compound, the NOAEL (rat [17]; group: maternal, systemic / in life observation / body weight / body weight gain + systemic / in life observation / clinical signs / salivation + …) was 200 mg/kg/day, the LEL (rat [18]; [38]) was 400 mg/kg/day and the LOAEL (rat [18]; [38]) was greater than 400 mg/kg/day. The NEL (rat [18]; [38]) was 150 mg/kg/day, the NOAEL (rat [18]; [38]) was no less than 400 mg/kg/day and the LEL (rat [18]; [41]) was 150 mg/kg/day. It also gave an LOAEL (rat [18]; [41]) of 150 mg/kg/day, an NEL (rat [18]; [41]) of 25 mg/kg/day and an NOAEL (rat [18]; [41]) of 25 mg/kg/day. It also gave an LOAEL (rat [19]; [42]) of 750 mg/kg/day, an NOAEL (rat [19]; [42]) of 500 mg/kg/day and an LEL (rat [19]; [43]) of 100 mg/kg/day. It also gave an NEL (rat [19]; [43]) of less than 100 mg/kg/day.
